The record followed here is patent publication US5519021A, “Benzoxazinones as inhibitors of HIV reverse transcriptase” (priority 1995, dated 1996).

Where two headings read alike, the source gives them in different places. A value given as a limit tells only on which side of the number the result lay.

For test [1], the target named is T1, recombinant HIV reverse transcriptase (HIV RTR) (Human immunodeficiency virus type 1 group M subtype B, UniProt P04585).
T1 construct: recombinant HIV reverse transcriptase (HIV RTR); made in house; host or cells: E. coli
As to the kind of experiment: Reverse transcriptase assay (wild type). It is filed as biochemical, HIV-1. The following applies: wild-type RT, read-out: IC*50 wt. Here is the method: (§1) The assay measures the incorporation of tritiated deoxyguanosine monophosphate by recombinant HIV reverse transcriptase (HIV RTR) (or other RT) into acid-precipitable cDNA at the Km values of dGTP and poly r(C).cndot.oligo d(G)12-18.
(§2) The assays were carried out in 55 mM Tris (pH 8.2)-30 mM KCl-30 mM MgCl2 -1 mM dithiothreitol-20 μg of rC:dG 12-18 (Pharmacia) per ml-8 mM [^3 H]dGTP (New England Nuclear)-0.01% Triton X-100-50 mM ethylene glycol-bis(β-amino-ethyl ether)-N,N,N',N'-tetraacetic acid (EGTA)-1 mg of bovine serum albumin per ml. After 60 min of incubation at 37° C., acid-precipitable material was collected onto glass fiber filters by using a semiautomatic cell harvester. Bacterial cell extracts containing RT were diluted to within the linear range of the assay, and activity was determined in the presence and absence of inhibitor. Purified HIV-1 RT heterodimer produced in E. coli also served as a control.

The target of the next test is T2, A17 RT (Human immunodeficiency virus type 1 group M subtype B, UniProt P04585, K690N/Y768C).
T2 construct: A17 RT was employed in the assay; made in house; host or cells: bacteria
As to the kind of experiment: biochemical. Further details: species or system HIV-1. The procedure: as §1, §2
For the double mutant assay (dm), A17 RT was employed in the assay. […] Results are measured as IC50 dm in nanomoles/liter.

With `COc1ccc(C#CC2(C(F)(F)F)OC(=O)Nc3ccc(Cl)cc32)cc1` (stereo not drawn), the IC50 in test [1] (Table I) was 58 nM; against A17 RT it was 4100 nM.

As to `O=C1Nc2ccc(Cl)cc2C(C#Cc2ccccc2)(C(F)(F)Cl)O1` (racemic) [Compound 5, (+/-) 4-(1-Chloro-1,1-difluoromethyl)-4-(2-phenylethynyl)-6-chloro-1,4-dihydro-2H-3,1-benzoxazin-2-one], the IC50 in test [1] (Table I) is 12 nM; on A17 RT, 350 nM. For `O=C1Nc2ccc(Cl)cc2C(C#CCN2CCCC2)(C(F)(F)F)O1` (racemic) [Compound 7, (+/-) 6-Chloro-4-(1,1,1-trifluoromethyl)-4-[(3-(1-pyrrolidinyl))-1-propynyl] -1,4-dihydro-2H-3,1-benzoxazin-2-one], in that order: 91 nM and 3460 nM. Consider `C=CCCC1(C(F)(F)F)OC(=O)Nc2ccc(Cl)cc21` (racemic) [Compound 15, (+/-) 4-(1,1,1,-trifluoromethyl)-4-(1-buten-4-yl)-6-chloro-1,4-dihydro-2H-3,1-benzoxazin-2-one], for which the values for the IC50 (in test [1] (Table I); against A17 RT) were 29 nM and above 100000 nM, respectively. As to `C#CC1(C(F)(F)F)OC(=O)Nc2ccc(Cl)cc21` (racemic) [Compound 26, (+/-) 6-Chloro-4-ethynyl-4-(1,1,1-trifluoromethyl)-1,4-dihydro-2H-3,1-benzoxazin-2-one], the IC50 in test [1] (Table I) is 0.24 nM; against A17 RT, above 100000 nM. In the case of `O=C1Nc2ccc(Cl)cc2C(C#Cc2ccccc2[N+](=O)[O-])(C(F)(F)F)O1` (stereo not drawn) [Compound 6], the values for the IC50 (in test [1] (Table I); against A17 RT) were 1700 nM and 19000 nM, respectively.

For `Cc1ccc(C#CC2(C(F)(F)F)OC(=O)Nc3ccc(Cl)cc32)cc1` (stereo not drawn) [Compound 8], the IC50 in test [1] (Table I) was determined as 163 nM; against A17 RT it was 8470 nM. For `COc1cccc(C#CC2(C(F)(F)F)OC(=O)Nc3ccc(Cl)cc32)c1` (stereo not drawn) [Compound 10], in that order: 18 nM and 390 nM. Consider `COC(=O)/C=C(/OC)C1(C(F)(F)F)OC(=O)Nc2ccc(Cl)cc21` (stereo not drawn) [Compound 13], for which the IC50 was found to be 390 nM in test [1] (Table I) and 100000 nM at A17 RT. For `O=C1Nc2ccc(Cl)cc2C(CCCCl)(C(F)(F)F)O1` (stereo not drawn) [Compound 14], in that order: 130 nM and 65000 nM. For `CCC1(C(F)(F)F)OC(=O)Nc2ccc(Cl)cc21` (stereo not drawn) [Compound 17], in that order: 2300 nM and above 100000 nM. Take `CCCCC1(C(F)(F)F)OC(=O)Nc2ccc(Cl)cc21` (stereo not drawn) [Compound 19]: the figures for the IC50 (in test [1] (Table I); against A17 RT) were 24 nM and 25000 nM, respectively.

In the case of `O=C1Nc2ccc(Cl)cc2C(c2ccccc2)(C(F)(F)F)O1` (stereo not drawn) [Compound 20], the IC50 in test [1] (Table I) came to 145 nM; against A17 RT, 100000 nM.

As for `O=C1Nc2ccc(Cl)cc2C(Sc2ccccc2)(C(F)(F)F)O1` (stereo not drawn) [Compound 21], the IC50 in test [1] (Table I) worked out at 860 nM; at A17 RT, 125000 nM. The matching figures for `O=C1Nc2ccc(Cl)cc2C(CCc2ccccc2)(C(F)(F)F)O1` (stereo not drawn) [Compound 22]: 55 nM and 3650 nM. Turning to `C=CC1(C(F)(F)F)OC(=O)Nc2ccc(Cl)cc21` (stereo not drawn) [Compound 23], the IC50 in test [1] (Table I) is 1300 nM; against A17 RT it was above 30000 nM. The matching figures for `C=CCC1(C(F)(F)F)OC(=O)Nc2ccc(Cl)cc21` (stereo not drawn) [Compound 25]: 220 nM and above 100000 nM. The matching figures for `O=C1Nc2ccc(Cl)cc2C(C#CCO)(C(F)(F)F)O1` (stereo not drawn) [Compound 27]: 550 nM and above 100000 nM. The matching figures for `C#CC1(CCC)OC(=O)Nc2ccc(Cl)cc21` (stereo not drawn) [Compound 29]: 1900 nM and above 100000 nM. For the compound `CCCC1(c2ccccc2)OC(=O)Nc2ccc(Cl)cc21` (stereo not drawn) [Compound 32], the IC50 in test [1] (Table I) was determined as 5400 nM. Still for that read-out and setting: then `CCC1(c2ccccc2)OC(=O)Nc2ccc(Cl)cc21` (stereo not drawn) [Compound 33], with 300 nM.

With `CCCCC1(c2ccccc2)OC(=S)Nc2ccc(Cl)cc21` (stereo not drawn) [Compound 42], the IC50 in test [1] (Table II) worked out at 1450 nM. The same measure, in the same setting: the result for `CCCC1(c2ccccc2)OC(=S)Nc2ccc(Cl)cc21` (stereo not drawn) [Compound 43] reads 610 nM.
